24 compounds from ChEMBL document CHEMBL5506037, “Synthesis of Heterocyclic Ring-Fused Bisnoralcohol Derivatives as Novel Small-Molecule Antiosteoporosis Agents” (J Med Chem, 2024) can be followed below.

Where only a bound is given, the exact number is not on record here.

Data set [1] concerns BMMC. The experiment in a line: Anti-osteoclastogenesis activity in M-CSF/RANKL-induced C57BL/6J mouse BMMC cells assessed as inhibition of osteoclast differentiation at 1 uM incubated for 7 days by TRAP staining based analysis relative to control. The data set is classed as functional. The conditions noted are these: 168 h, time 7 day.
Data set [2] has as its system BMMC. The data set is described as follows: Anti-osteoclastogenesis activity in M-CSF/RANKL-induced C57BL/6J mouse BMMC cells assessed as inhibition of osteoclast differentiation at 0.1 uM incubated for 7 days by TRAP staining based analysis relative to control. The data set is classed as functional. The conditions noted are these: 168 h, time 7 day.
Data set [3] in a line: Cytotoxicity against M-CSF induced C57BL/6J mouse BMMC cells assessed as cell viability at 10 uM incubated for 48 hrs by CCK-8 assay relative to control. The data set is classed as toxicity, cell-based. The note with it: read-out: Activity. For orientation: Formazan colour is commonly taken as a measure of viable cells.
For data set [4], the system named is BMMC. The experiment in a line: Anti-osteoclastogenesis activity in M-CSF/RANKL-induced C57BL/6J mouse BMMC cells assessed as inhibition of osteoclast differentiation at 5 uM incubated for 7 days by TRAP staining based analysis relative to control. The data set is classed as functional. The conditions noted are these: 168 h, time 7 day.
Data set [5] deals with BMMC. The data set is described as follows: Anti-osteoclastogenesis activity in M-CSF/RANKL-induced C57BL/6J mouse BMMC cells assessed as inhibition of osteoclast differentiation at 10 uM incubated for 7 days by TRAP staining based analysis relative to control. The format is functional. The conditions noted are these: 168 h, time 7 day.

Turning to `C[C@H](C(=O)Nc1ccc(Br)cc1)[C@H]1CC[C@H]2[C@@H]3CC=C4C(C)(C)c5nnsc5C[C@]4(C)[C@H]3CC[C@]12C`, in data set [1], the inhibition (in general, the relative decrease from the control value, in per cent) at 1 µM was found to be 65.1%. For the same compound, the inhibition at 0.1 µM in data set [2] was 0%. In addition, in data set [3], the viability at 48 h, 10 µM was no less than 100%.
Consider `C[C@H](CO)[C@H]1CC[C@H]2[C@@H]3CC=C4C(C)(C)c5nnsc5C[C@]4(C)[C@H]3CC[C@]12C`, for which the inhibition at 1 µM in data set [1] worked out at 75.8%. In data set [4], the inhibition at 5 µM is 100%. Also, the viability at 48 h, 10 µM in data set [3] is no less than 100%. Further, the inhibition at 10 µM in data set [5] was 100%.
On to `C[C@H](C(=O)O)[C@H]1CC[C@H]2[C@@H]3CC=C4C(C)(C)c5nnsc5C[C@]4(C)[C@H]3CC[C@]12C`, for which the inhibition at 1 µM in data set [1] came out at 86.8%. In addition, in data set [2], the inhibition at 0.1 µM is 45.8%. The viability at 48 h, 10 µM in data set [3] was no less than 100%.
For the compound `CCNC(=O)CC[C@@H](C)[C@H]1CC[C@H]2[C@@H]3CC=C4C(C)(C)c5nnsc5C[C@]4(C)[C@H]3CC[C@]12C`, the inhibition at 1 µM in data set [1] came out at 100%. Besides, in data set [2], the inhibition at 0.1 µM is 46.4%. The viability at 48 h, 10 µM in data set [3] is no less than 100%.
In the same order, the values of `CCNC(=O)CCCC[C@@H](C)[C@H]1CC[C@H]2[C@@H]3CC=C4C(C)(C)c5nnsc5C[C@]4(C)[C@H]3CC[C@]12C` are 98.8%, 7.4% and no less than 100%.
Take `C[C@H](CO)[C@H]1CC[C@H]2[C@@H]3CC=C4C(C)(C)c5nc(N)ncc5C[C@]4(C)[C@H]3CC[C@]12C`: in data set [1], the inhibition at 1 µM is 25.9%. Further, the inhibition at 5 µM in data set [4] was found to be 87.3%. Also, the viability at 48 h, 10 µM in data set [3] was no less than 100%. Further, the inhibition at 10 µM in data set [5] was found to be 100%.
On to `CNC(=O)[C@@H](C)[C@H]1CC[C@H]2[C@@H]3CC=C4C(C)(C)c5nnsc5C[C@]4(C)[C@H]3CC[C@]12C`, for which the inhibition at 1 µM in data set [1] turned out to be 100%. The inhibition at 0.1 µM in data set [2] is 49.3%. The viability at 48 h, 10 µM in data set [3] was no less than 100%.
On to `C[C@H](CO)[C@H]1CC[C@H]2[C@@H]3CC=C4C(C)(C)c5nc6ccccc6cc5C[C@]4(C)[C@H]3CC[C@]12C`, for which the inhibition at 1 µM in data set [1] was determined as 37.8%. Also, the inhibition at 5 µM in data set [4] turned out to be 47.2%. Further, the viability at 48 h, 10 µM in data set [3] is no less than 100%. Also, in data set [5], the inhibition at 10 µM came to 93.9%.
For the compound `CCCCCCNC(=O)[C@@H](C)[C@H]1CC[C@H]2[C@@H]3CC=C4C(C)(C)c5nnsc5C[C@]4(C)[C@H]3CC[C@]12C`, the inhibition at 1 µM in data set [1] turned out to be 87.2%. In addition, in data set [2], the inhibition at 0.1 µM amounted to 50.1%. Further, the viability at 48 h, 10 µM in data set [3] is no less than 100%.
With `CCNC(=O)C[C@@H](C)[C@H]1CC[C@H]2[C@@H]3CC=C4C(C)(C)c5nnsc5C[C@]4(C)[C@H]3CC[C@]12C`, the inhibition at 1 µM in data set [1] is 99.5%. Besides, the inhibition at 0.1 µM in data set [2] is 21.9%. Besides, in data set [3], the viability at 48 h, 10 µM is no less than 100%.
Regarding `CCCNC(=O)[C@@H](C)[C@H]1CC[C@H]2[C@@H]3CC=C4C(C)(C)c5nnsc5C[C@]4(C)[C@H]3CC[C@]12C`, the inhibition at 1 µM in data set [1] was found to be 100%. The inhibition at 0.1 µM in data set [2] is 72.7%. The viability at 48 h, 10 µM in data set [3] was no less than 100%.
For `CCNC(=O)CCC[C@@H](C)[C@H]1CC[C@H]2[C@@H]3CC=C4C(C)(C)c5nnsc5C[C@]4(C)[C@H]3CC[C@]12C`, the inhibition at 1 µM in data set [1] was found to be 100%. Moreover, the inhibition at 0.1 µM in data set [2] turned out to be 15.8%. Further, the viability at 48 h, 10 µM in data set [3] was no less than 100%.
`C[C@H](C(=O)NC1CCCCC1)[C@H]1CC[C@H]2[C@@H]3CC=C4C(C)(C)c5nnsc5C[C@]4(C)[C@H]3CC[C@]12C`: the inhibition at 1 µM in data set [1] stood at 100%. Further, the inhibition at 0.1 µM in data set [2] is 54%. The viability at 48 h, 10 µM in data set [3] was no less than 100%.
In the same order, the values of `C[C@H](C(=O)Nc1ccc(Cl)cc1)[C@H]1CC[C@H]2[C@@H]3CC=C4C(C)(C)c5nnsc5C[C@]4(C)[C@H]3CC[C@]12C` are 81%, 45.2% and no less than 100%.
In the case of `C[C@H](C(=O)Nc1ccncc1)[C@H]1CC[C@H]2[C@@H]3CC=C4C(C)(C)c5nnsc5C[C@]4(C)[C@H]3CC[C@]12C`, in data set [1], the inhibition at 1 µM worked out at 85.5%. Besides, the inhibition at 0.1 µM in data set [2] turned out to be 30.2%. Besides, the viability at 48 h, 10 µM in data set [3] is no less than 100%.
Take `C[C@H](CO)[C@H]1CC[C@H]2[C@@H]3CC=C4C(C)(C)c5nccnc5C[C@]4(C)[C@H]3CC[C@]12C`: the inhibition at 1 µM in data set [1] is 13.9%. Also, the inhibition at 5 µM in data set [4] was 44.9%. Besides, in data set [3], the viability at 48 h, 10 µM was no less than 100%. In addition, the inhibition at 10 µM in data set [5] is 67.8%.
Regarding `COc1ccc(NC(=O)[C@@H](C)[C@H]2CC[C@H]3[C@@H]4CC=C5C(C)(C)c6nnsc6C[C@]5(C)[C@H]4CC[C@]23C)cc1`, in data set [1], the inhibition at 1 µM stood at 100%. For the same compound, the inhibition at 0.1 µM in data set [2] was found to be 69.6%. Also, the viability at 48 h, 10 µM in data set [3] was no less than 100%.
Regarding `Cc1nc2c(o1)C(C)(C)C1=CC[C@H]3[C@@H]4CC[C@H]([C@H](C)CO)[C@@]4(C)CC[C@@H]3[C@@]1(C)C2`, the inhibition at 1 µM in data set [1] is 43%. Further, in data set [4], the inhibition at 5 µM worked out at 73.8%. For the same compound, the viability at 48 h, 10 µM in data set [3] was no less than 100%. The inhibition at 10 µM in data set [5] stood at 89.8%.
For the compound `C[C@H](C(=O)Nc1ccc(F)cc1)[C@H]1CC[C@H]2[C@@H]3CC=C4C(C)(C)c5nnsc5C[C@]4(C)[C@H]3CC[C@]12C`, in data set [1], the inhibition at 1 µM was 91.9%. Further, the inhibition at 0.1 µM in data set [2] turned out to be 47.5%. Moreover, the viability at 48 h, 10 µM in data set [3] is no less than 100%.
The like results for `C[C@H](C(=O)N1CCOCC1)[C@H]1CC[C@H]2[C@@H]3CC=C4C(C)(C)c5nnsc5C[C@]4(C)[C@H]3CC[C@]12C` were, in that order, 91.9%, 53.5% and no less than 100%.
As for `C[C@H](C(=O)Nc1nccs1)[C@H]1CC[C@H]2[C@@H]3CC=C4C(C)(C)c5nnsc5C[C@]4(C)[C@H]3CC[C@]12C`, the inhibition at 1 µM in data set [1] turned out to be 85.9%. In addition, in data set [2], the inhibition at 0.1 µM is 19.2%. In data set [3], the viability at 48 h, 10 µM was no less than 100%.
The like results for `CCCCNC(=O)[C@@H](C)[C@H]1CC[C@H]2[C@@H]3CC=C4C(C)(C)c5nnsc5C[C@]4(C)[C@H]3CC[C@]12C` were, in that order, 100%, 76.3% and no less than 100%.
`CC(C)CNC(=O)[C@@H](C)[C@H]1CC[C@H]2[C@@H]3CC=C4C(C)(C)c5nnsc5C[C@]4(C)[C@H]3CC[C@]12C`: the inhibition at 1 µM in data set [1] stood at 100%. The inhibition at 0.1 µM in data set [2] worked out at 72.1%. Also, the viability at 48 h, 10 µM in data set [3] is no less than 100%.
Regarding `C=CCNC(=O)[C@@H](C)[C@H]1CC[C@H]2[C@@H]3CC=C4C(C)(C)c5nnsc5C[C@]4(C)[C@H]3CC[C@]12C`, in data set [1], the inhibition at 1 µM is 98.3%. Besides, the inhibition at 0.1 µM in data set [2] came to 61.1%. For the same compound, the viability at 48 h, 10 µM in data set [3] was no less than 100%.
